# From US11453667B2, “Pyridone-pyrimidine derivative acting as KRASG12C mutein inhibitor” (MEDSHINE DISCOVERY INC., priority 2018, dated 2022)
# Where two headings read alike, the source gives them in different places.
# Tests used:
# [1] = test system: wild-type A375 human malignant melanoma cells; assay: Cell experiment: anti-proliferative activity, CellTiter-Glo, A375; type: cell-based; conditions: Homo sapiens, A-375, 120 h, 5 days culture
# Method: (§1) This experiment is intended to verify that the compounds of the present invention have an inhibitory effect on the proliferation of NCI-H358 human non-small cell lung cancer cells with KRAS G12C mutation, MIA PaCa2 human pancreatic cancer cells with KRAS G12C mutation and wild-type A375 human malignant melanoma cells.
# (§2) 40 μl of phosphate buffer was added to the peripheral wells of three 384-well microplates respectively, and 40 μl of cell suspension to be tested was added to the other wells of each plate respectively (plate 1: NCI-H358 cell suspension containing 500 NCI-H358 cells; plate 2: MIAPaCa2 cell suspension containing 300 MIAPaCa2 cells; plate 3: A375 cell suspension containing 300 A375 cells). The three cell plates were then placed in a carbon dioxide incubator and incubated overnight. Echo was used to perform a 3-fold gradient dilution of the compounds to be tested, and each compound was diluted with 10 concentration gradients (diluted from 50 μM to 0.003 μM), 100 nl of which was respectively added to the corresponding wells of the cell plates; after dosing, 40 μL of phosphate buffer was added to each well of rows A and P and columns 1 and 24, and then the cell plates were put back to the carbon dioxide incubator for culturing for 5 days. 20 μl of Promega CellTiter-Glo reagent per well was added to the cell plates, which was shaken at room temperature for 10 minutes in the dark to stabilize the luminescence signal. A PerkinElmer Envision multi-label analyzer was used for reading.
# (§3) Data analysis: IC50 results were analyzed by GraphPad Prism 5.0 software […].
# [2] = test system: MIA PaCa2 human pancreatic cancer cells with KRAS G12C mutation; assay: Cell experiment: anti-proliferative activity, CellTiter-Glo, MIA PaCa2; type: cell-based; conditions: Homo sapiens, MIA PaCa-2, 120 h, 5 days culture
# Method: as §1, §2, §3
# [3] = Liver microsome stability test, mouse; type: in vitro ADME; conditions: mouse liver microsomes, 0.5 mg protein/mL; read-out: mouse T1/2
# Method: (§4) To test the metabolic stability of the test article in mice, rats and human liver microsomes.
# (§5) 1. 10 μL of the test or control article working solution was added to all plates (T0, T5, T10, T20, T30, T60, NCF60).
# (§6) 2. Liver microsome solution was dispensed into a 96-well plate at 680 μL/well, and addition was performed on each plate at 80 μL/well, and the above-mentioned incubation plate was placed at 37° C. for pre-incubation for about 10 minutes.
# (§7) 4. After the pre-incubation, the NADPH regeneration system working solution was dispensed into the 96-well plate at 90 μL/well, and addition was performed on each plate at 10 μL/well to start the reaction.
# (§8) 5. Incubation was performed for an appropriate time (e.g., 5, 10, 20, 30 and 60 minutes).
# (§9) 6. 300 μL of the stopping solution (refrigerated at 4° C., containing 100 ng/mL of tolbutamide and 100 ng/mL of labetalol) was respectively added to each sample well.
# (§10) T1/2 and Clint(mic) were calculated by the following formula.
# (§11) Ct is the concentration at time t, with t being the incubation time; C0 is the concentration at 0; Ke is the elimination rate constant; Clint(mic) is the intrinsic clearance rate of liver microsomes; and Clint(liver) is the hepatic intrinsic clearance rate. CLint(mic)=0.693/half-life/mg microsomal protein per mL (microsome concentration during incubation) CLint(liver)=CLint(mic)×mg microsomal protein/g liver weight×ratio of liver weight to body weight
# [4] = test system: NCI-H358 human non-small cell lung cancer cells with KRAS G12C mutation; assay: Cell experiment: anti-proliferative activity, CellTiter-Glo, NCI-H358; type: cell-based; conditions: Homo sapiens, NCI-H358, 120 h, 5 days culture
# Method: as §1, §2, §3
# [5] = Liver microsome stability test, rat; type: in vitro ADME; conditions: rat liver microsomes, 0.5 mg protein/mL; read-out: rat T1/2
# Method: as §4, §5, §6, §7, §8, §9, §10, §11
# [6] = test system: human pancreatic cancer MIA-PaCa2 cell; assay: In vivo drug efficacy test (1): subcutaneous xenograft tumor model; design: species or system BALB/c nude mice; conditions: for TGI: day 20
# Method: To evaluate the in vivo efficacy of the test compounds in a subcutaneous xenograft tumor model of human pancreatic cancer MIA-PaCa2 cell.
# BALB/c nude mice, female, 6-8 weeks old, weighing approximately 18-22 grams. Each mouse was subcutaneously inoculated with 0.2 mL (1×10^7) of MIA-PaCa2 cells (plus matrigel, with the volume ratio being 1:1) on the right back. The administration was performed when the average tumor volume reached about 169 cubic millimeters. The tumor volume was measured twice a week, with the volume measured in cubic millimeters, and calculated by the following formula: V=0.5 a×b^2, where a and b were the long and short diameters of the tumor, respectively. The tumor suppressive effect of the compounds was evaluated by TGI (%). TGI (%) reflects the tumor growth inhibition rate. Calculation of TGI (%): TGI (%)=[(1−(average tumor volume at the end of administration in a treatment group−average tumor volume at the beginning of administration in the treatment group))/(average tumor volume at the end of treatment in the solvent control group−average tumor volume at the beginning of treatment in the solvent control group)]×100%.
# [7] = Liver microsome stability test, human; type: in vitro ADME; conditions: human liver microsomes, 0.5 mg protein/mL; read-out: Human T1/2
# Method: as §4, §5, §6, §7, §8, §9, §10, §11
# [8] = test system: pancreatic cancer MIA-Paca2 cell; conditions: reported in Cell, 2018, 172, 578-589; cited from earlier work
# [9] = test system: human non-small cell lung cancer NCI-H358; assay: In vivo drug efficacy test (4): subcutaneous xenograft tumor model; design: species or system BALB/c nude mice; conditions: 15 mg/kg
# Method: (§12) To evaluate the in vivo efficacy of the test compounds in a subcutaneous xenograft tumor model of human non-small cell lung cancer NCI-H358.
# BALB/c nude mice, female, 6-8 weeks old, weighing 18-20 grams. A total of 40 were required. They were provided by Shanghai Lingchang Experimental Animal Co., Ltd ( ? ? ). NCI-H358 tumor cells were resuspended in PBS to prepare a cell suspension with a density of 5×10^7/mL, which was inoculated subcutaneously on the right back of each mouse (0.1 mL, 5×10^6/mouse) to wait for tumor growth. When the average tumor volume reached about 166 mm^3, randomized grouping and administration were performed, and the administration dose was shown in Table 8. The diameter of the tumor was measured with vernier calipers twice a week.
# The formula for calculating the tumor volume is: V=0.5a×b^2, wherein a and b represent the long and short diameters of the tumor, respectively. The tumor suppressive effect of the compounds was evaluated by TGI (%). TGI (%) reflects the tumor growth inhibition rate. Calculation of TGI (%): TGI (%)=[(1−(average tumor volume at the end of administration in a treatment group−average tumor volume at the beginning of administration in the treatment group))/(average tumor volume at the end of treatment in the solvent control group−average tumor volume at the beginning of treatment in the solvent control group)]×100%.
# [10] = test system: human pancreatic cancer x-MIA-PaCa2 cell; assay: In vivo drug efficacy test (3): subcutaneous xenograft tumor model; design: species or system NU/NU mice; conditions: 50 mg/kg
# Method: To evaluate the in vivo efficacy of the test compounds in a subcutaneous xenograft tumor model of human pancreatic cancer x-MIA-PaCa2 cell.
# NU/NU mice, female, 6-8 weeks old, weighing 17-20 grams. A total of 100 were required (additional 30% of animals were inoculated). They were provided by Beijing Vital River Science and Technology Co., Ltd. Each mouse was subcutaneously inoculated with 0.2 mL (10×10^6) of x-MIA-PaCa2 cells (plus matrigel, with the volume ratio being 1:1) on the right back. When the average tumor volume reached about 150 mm^3, grouping and administration were performed, and the administration dose was shown in Table 7. The diameter of the tumor was measured with vernier calipers twice a week. The formula for calculating the tumor volume is: V=0.5a×b^2, wherein a and b represent the long and short diameters of the tumor, respectively. The tumor suppressive effect of the compounds was evaluated by TGI (%). TGI (%) reflects the tumor growth inhibition rate. Calculation of TGI (%): TGI (%)=[(1−(average tumor volume at the end of administration in a treatment group−average tumor volume at the beginning of administration in the treatment group))/(average tumor volume at the end of treatment in the solvent control group−average tumor volume at the beginning of treatment in the solvent control group)]×100%.
# [11] = Rat pharmacokinetic evaluation experiment; type: in vivo; conditions: plasma, male SD rats; for AUC: read-out: AUC (exposure)
# Text: To determine the drug concentrations in plasma at different times after intravenous and intragastric administration of the test compounds to the rats by using the LC/MS/MS method and using male SD rats as the test animals; To study the pharmacokinetic behaviors of the test compounds in rats and to evaluate the pharmacokinetic characteristics thereof.
# Experiment scheme: 10 healthy adult male SD rats were used as experimental animals and divided into 4 groups according to the principle of similar body weight, with 2 in each group of the group IV (two groups) and 3 in each group of the group PO (two groups). The animals were purchased from Beijing Vital River Laboratory Animal Technology Co., Ltd.
# Group IV: an appropriate amount of samples were weighed; an appropriate amount of DMSO, PEG400 and water were added successively thereto according to the volume ratio of 10:60:30; and stirring was performed under sonication to reach a clear state of 1.5 mg/mL.
# Group PO: an appropriate amount of samples were weighed; an appropriate amount of DMSO, PEG400 and water were added successively thereto according to the volume ratio of 10:60:30; and stirring was performed under sonication to reach a clear state of 1.0 mg/mL.
# After fasting overnight, each rat in the group IV was administered intravenously with a volume of 2 mL/kg and a dose of 3 mg/kg; each rat in the group PO was administered intragastrically with a volume of 10 mL/kg and a dose of 10 mg/kg.
# After each of the male SD rats in the group IV was administrated with the test compounds, 200 ul of blood samples were collected at 0.0833, 0.25, 0.5, 1, 2, 4, 6, 8 and 24 hours, and were placed in a commercial anticoagulation tube pre-loaded with EDTA-K2. After each rat in the group PO was administrated with the test compounds, 200 ul of blood samples were collected at 0.25, 0.5, 1, 2, 4, 6, 8 and 24 hours respectively, and were placed in a commercial anticoagulation tube pre-loaded with EDTA-K2. The test tube was centrifuged for 15 minutes to separate the plasma and stored at −60° C. 2 hours after administration, the animals can be fed. The content of the test compounds in plasma was determined by the LC/MS/MS method after intravenous and intragastric administration to the rats. The linear range of the method was from 2.00 to 6000 nM; plasma samples were analyzed after treatment of precipitating proteins by acetonitrile.
# Note: Cl: clearance rate; Vd: volume of distribution; AUC: exposure; T1/2: half-life; Cmax: maximum compound concentration after oral administration; Tmax: time to reach Cmax; F: bioavailability.
# [12] = test system: human non-small cell lung cancer NCI-H358; assay: In vivo drug efficacy test (2): subcutaneous xenograft tumor model; design: species or system BALB/c nude mice; conditions: 100 mg/kg (0-6 days) + 50 mg/kg (7-20 days)
# Method: as §12
# BALB/c nude mice, female, 6-8 weeks old, weighing 18-21 grams. A total of 100 were required. They were provided by Shanghai Lingchang Experimental Animal Co., Ltd ( ? ? ). NCI-H358 tumor cells were resuspended in PBS to prepare 0.1 mL (5×10^6) of cell suspension, which was inoculated subcutaneously on the right back of each mouse (5×10^6/mouse) to wait for tumor growth. When the average tumor volume reached about 150-200 mm^3, randomized grouping and administration were performed, and the administration dose was shown in Table 6. The diameter of the tumor was measured with vernier calipers twice a week. The formula for calculating the tumor volume is: V=0.5a×b^2, wherein a and b represent the long and short diameters of the tumor, respectively. The tumor suppressive effect of the compounds was evaluated by TGI (%). TGI (%) reflects the tumor growth inhibition rate. Calculation of TGI (%): TGI (%)=[(1−(average tumor volume at the end of administration in a treatment group−average tumor volume at the beginning of administration in the treatment group))/(average tumor volume at the end of treatment in the solvent control group−average tumor volume at the beginning of treatment in the solvent control group)]×100%.
# KRAS G12C mutation = conditions: reported in Cell, 2018, 172, 578-589; cited from earlier work
# [13] = reported in Cell, 2018, 172, 578-589; cited from earlier work
structure (smiles),measurement,setting,value
C=CC(=O)N1CCN(c2ncnc3c(=O)n(-c4c(O)cccc4F)c(C(F)(F)F)cc23)CC1 [Example 2],IC50,[1],> 50 µM
same,IC50,[2],6.48 µM
same,half-life,[3],> 145 min
same,IC50,[4],5.36 µM
same,half-life,[5],> 145 min
same,Tumor volume (day 20),[6]; 50 mg/kg orally daily,457 ± 94 mm^3
same,TGI,[6]; 50 mg/kg orally daily,35%
same,Tumor volume (day 20),[6]; 200 mg/kg orally daily,307 ± 61 mm^3
same,TGI,[6]; 200 mg/kg orally daily,69%
same,half-life,[7],> 145 min
"C=CC(=O)N1CCN(c2ncnc3c(F)c(-c4c(O)cccc4F)c(Cl)cc23)CC1 [ARS-1620, reference compound]",tumor growth in subcutaneous xenograft tumor model,[8],effectively inhibit tumor growth
same,Tumor volume (day 27),[9],492 mm^3
same,TGI,[9]; day 27,51.78%
same,Tumor volume (day 14),[10],907 mm^3
same,TGI,[10]; day 14,50.36%
same,AUC,[11]; IV 3 mg/kg,3.21 µM·h
same,clearance,"[11]; IV 3 mg/kg, read-out: Cl (clearance rate)",36.3 mL/min/kg
same,half-life,"[11]; IV 3 mg/kg, read-out: T1/2 (half-life) (converted)",27.7 min
same,Vd,"[11]; IV 3 mg/kg, read-out: Vd (volume of distribution)",1.08 L/kg
same,Cmax,[11]; PO 10 mg/kg,1240 nM
same,Tmax,[11]; PO 10 mg/kg,20 min
same,AUC,[11]; PO 10 mg/kg,2.32 µM·h
same,bioavailability,"[11]; PO 10 mg/kg, read-out: F (bioavailability)",22%
same,Tumor volume (day 20),[12],216 mm^3
same,TGI,[12]; day 20,90.82%
same,cellular anti-proliferative activity at the cellular level,KRAS G12C mutation,nM-level
same,metabolic stability,[13],good metabolic stability
